Biological target: Carbonic anhydrase 9 (Homo sapiens, UniProt Q16790)
Assay: Inhibition of human carbonic anhydrase 9 after 15 mins by stopped flow CO2 hydration assay

CCOC(=O)CCc1c(C)nn(-c2ccncc2S(N)(=O)=O)c1C
Ki: 19.5 nM

— ChEMBL document CHEMBL2434896, “Carbonic anhydrase inhibitors. Synthesis of heterocyclic 4-substituted pyridine-3-sulfonamide derivatives and their inhibition of the human cytosolic isozymes I and II and transmembrane tumor-associated isozymes IX and XII” (Eur J Med Chem, 2013)
